From ChEMBL document CHEMBL3774317, “Design and synthesis of novel tamoxifen analogues that avoid CYP2D6 metabolism” (Eur J Med Chem, 2016)

Experiments:
[1] = Cytotoxicity against human HL-60(TB) cells assessed as growth inhibition after 48 hrs by SRB assay; format: functional; conditions: HL-60, 48 h; for CC50: read-out: LC50 (the source's name)
MCF7 [2] = assay: Cytotoxicity against human MCF7 cells assessed as growth inhibition after 48 hrs by SRB assay; format: functional; conditions: MCF7, 48 h; for CC50: read-out: LC50 (the source's name)
SK-MEL-2 = assay: Cytotoxicity against human SK-MEL-2 cells assessed as growth inhibition after 48 hrs by SRB assay; format: functional; conditions: SK-MEL-2, 48 h; for CC50: read-out: LC50 (the source's name)
NCI-H23 = assay: Cytotoxicity against human NCI-H23 cells assessed as growth inhibition after 48 hrs by SRB assay; format: functional; conditions: NCI-H23, 48 h; for CC50: read-out: LC50 (the source's name)
NCI-H522 = assay: Cytotoxicity against human NCI-H522 cells assessed as growth inhibition after 48 hrs by SRB assay; format: functional; conditions: NCI-H522, 48 h; for CC50: read-out: LC50 (the source's name)
[3] = Cytotoxicity against human SNB75 cells assessed as growth inhibition after 48 hrs by SRB assay; format: functional; conditions: SNB-75, 48 h
NCI-H322M = assay: Cytotoxicity against human NCI-H322M cells assessed as growth inhibition after 48 hrs by SRB assay; format: functional; conditions: for CC50: read-out: LC50 (the source's name)
T47D = assay: Cytotoxicity against human T47D cells assessed as growth inhibition after 48 hrs by SRB assay; format: functional
SR = assay: Cytotoxicity against human SR cells assessed as growth inhibition after 48 hrs by SRB assay; format: functional; conditions: for CC50: read-out: LC50 (the source's name)
[4] = Cytotoxicity against human UACC62 cells assessed as growth inhibition after 48 hrs by SRB assay; format: functional; conditions: UACC-62, 48 h; for CC50: read-out: LC50 (the source's name)
[5] = Cytotoxicity against human COLO205 cells assessed as growth inhibition after 48 hrs by SRB assay; format: functional; conditions: COLO 205, 48 h; for CC50: read-out: LC50 (the source's name)
[6] = Cytotoxicity against human Caki1 cells assessed as growth inhibition after 48 hrs by SRB assay; format: functional; conditions: CAKI-1, 48 h
SK-MEL-28 = assay: Cytotoxicity against human SK-MEL-28 cells assessed as growth inhibition after 48 hrs by SRB assay; format: functional; conditions: SK-MEL-28, 48 h
K562 = assay: Cytotoxicity against human K562 cells assessed as growth inhibition after 48 hrs by SRB assay; format: functional; conditions: K562, 48 h
786-0 = assay: Cytotoxicity against human 786-0 cells assessed as growth inhibition after 48 hrs by SRB assay; format: functional; conditions: 786-0, 48 h; for CC50: read-out: LC50 (the source's name)
[7] = Cytotoxicity against human HOP92 cells assessed as growth inhibition after 48 hrs by SRB assay; format: functional; conditions: HOP-92, 48 h; for CC50: read-out: LC50 (the source's name)
Estrogen receptor = biological target: T1, Estrogen receptor (Homo sapiens, UniProt P03372)
T1 sequence (P03372 whole entry): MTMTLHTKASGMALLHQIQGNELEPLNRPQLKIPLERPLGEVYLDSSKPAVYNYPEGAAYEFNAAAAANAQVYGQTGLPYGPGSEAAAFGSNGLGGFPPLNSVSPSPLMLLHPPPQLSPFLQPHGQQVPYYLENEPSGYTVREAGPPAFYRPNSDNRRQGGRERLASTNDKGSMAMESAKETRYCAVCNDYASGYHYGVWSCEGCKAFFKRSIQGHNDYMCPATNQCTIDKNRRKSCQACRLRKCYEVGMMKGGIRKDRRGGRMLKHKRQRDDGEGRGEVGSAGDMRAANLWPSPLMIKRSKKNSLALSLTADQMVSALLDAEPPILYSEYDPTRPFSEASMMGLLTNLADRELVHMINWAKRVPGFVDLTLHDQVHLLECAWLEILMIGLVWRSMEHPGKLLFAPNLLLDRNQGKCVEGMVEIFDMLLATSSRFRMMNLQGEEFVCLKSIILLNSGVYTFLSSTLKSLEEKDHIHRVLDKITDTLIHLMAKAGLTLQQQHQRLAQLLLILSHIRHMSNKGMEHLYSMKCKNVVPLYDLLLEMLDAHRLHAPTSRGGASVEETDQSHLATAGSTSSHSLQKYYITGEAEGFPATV
Description: Displacement of [3H]-E2 from human ER-alpha incubated for 16 to 20 hrs by liquid scintillation counting analysis

ACHN = assay: Cytotoxicity against human ACHN cells assessed as growth inhibition after 48 hrs by SRB assay; format: functional
[8] = Cytotoxicity against human IGROV1 cells assessed as growth inhibition after 48 hrs by SRB assay; format: functional; conditions: IGROV-1, 48 h; for CC50: read-out: LC50 (the source's name)
U-251 = assay: Cytotoxicity against human U251 cells assessed as growth inhibition after 48 hrs by SRB assay; format: functional; conditions: U-251, 48 h
Malme-3M = assay: Cytotoxicity against human MALME-3M cells assessed as growth inhibition after 48 hrs by SRB assay; format: functional; conditions: for CC50: read-out: LC50 (the source's name)
[9] = Cytotoxicity against human OVCAR4 cells assessed as growth inhibition after 48 hrs by SRB assay; format: functional; conditions: OVCAR-4, 48 h
CCRF-CEM = assay: Cytotoxicity against human CCRF-CEM cells assessed as growth inhibition after 48 hrs by SRB assay; format: functional; conditions: for CC50: read-out: LC50 (the source's name)
[10] = Cytotoxicity against human HCT15 cells assessed as growth inhibition after 48 hrs by SRB assay; format: functional; conditions: HCT-15, 48 h
[11] = Cytotoxicity against human SF539 cells assessed as growth inhibition after 48 hrs by SRB assay; format: functional; conditions: SF-539, 48 h
MCF7 [12] = assay: Antiproliferative activity against human MCF7 cells after 72 hrs by MTT assay; conditions: mcf7
[13] = Cytotoxicity against human DU145 cells assessed as growth inhibition after 48 hrs by SRB assay; format: functional; conditions: DU-145, 48 h
[14] = Cytotoxicity against human MOLT4 cells assessed as growth inhibition after 48 hrs by SRB assay; format: functional; conditions: MOLT-4, 48 h

C/C(=C(/c1ccc(O)cc1)c1ccc(OCCN2CCCC2)cc1)c1ccccc1
GI50 [1]: 2.04 µM | TGI [1]: 4.97 µM | CC50 [1]: 23.4 µM | GI50 (MCF7 [2]): < 0.01 µM | TGI (MCF7 [2]): 2.72 µM | CC50 (MCF7 [2]): 14 µM | GI50 (SK-MEL-2): 1.97 µM | TGI (SK-MEL-2): 3.95 µM | CC50 (SK-MEL-2): 7.94 µM | GI50 (NCI-H23): 4.31 µM | TGI (NCI-H23): 18.2 µM | CC50 (NCI-H23): 50.8 µM | GI50 (NCI-H522): 2.1 µM | TGI (NCI-H522): 5.09 µM | CC50 (NCI-H522): 18.6 µM | GI50 [3]: 3.07 µM | LC50 [3]: 42.2 µM | TGI [3]: 15.7 µM | GI50 (NCI-H322M): 5.12 µM | TGI (NCI-H322M): 18.6 µM | CC50 (NCI-H322M): 47 µM | GI50 (T47D): 0.716 µM | LC50 (T47D): 53.7 µM | TGI (T47D): 7.93 µM | GI50 (SR): 1.93 µM | TGI (SR): 5.75 µM | CC50 (SR): 40.6 µM | GI50 [4]: 2.26 µM | TGI [4]: 4.72 µM | CC50 [4]: 9.84 µM | GI50 [5]: 1.7 µM | TGI [5]: 3.38 µM | CC50 [5]: 6.73 µM | GI50 [6]: 3.02 µM | LC50 [6]: 37.3 µM | TGI [6]: 13.9 µM | GI50 (SK-MEL-28): 1.65 µM | LC50 (concentration killing 50% of starting cells) (SK-MEL-28): 7.05 µM | TGI (SK-MEL-28): 3.41 µM | GI50 (K562): 1.81 µM | LC50 (K562): 23.6 µM | TGI (K562): 4.77 µM | GI50 (786-0): 1.86 µM | TGI (786-0): 4.09 µM | CC50 (786-0): 9 µM | GI50 [7]: 2.24 µM | TGI [7]: 7.34 µM | CC50 [7]: 31.2 µM | IC50 (Estrogen receptor): 0.0008 µM | GI50 (ACHN): 4.28 µM | LC50 (concentration causing 50% net cell kill) (ACHN): 44.1 µM | TGI (ACHN): 16.3 µM | GI50 [8]: 6.8 µM | TGI [8]: 27 µM | CC50 [8]: 90.7 µM | GI50 (U-251): 2.24 µM | LC50 (50% lethal concentration) (U-251): 18 µM | TGI (U-251): 5.49 µM | GI50 (Malme-3M): 1.7 µM | TGI (Malme-3M): 3.41 µM | CC50 (Malme-3M): 6.84 µM | GI50 [9]: 4.7 µM | LC50 [9]: 43.3 µM | TGI [9]: 17.5 µM | GI50 (CCRF-CEM): 3.2 µM | TGI (CCRF-CEM): 9.85 µM | CC50 (CCRF-CEM): 50 µM | GI50 [10]: 1.81 µM | LC50 (concentration killing 50% of cells) [10]: 14.4 µM | TGI [10]: 4.64 µM | GI50 [11]: 1.81 µM | LC50 [11]: 7.79 µM | TGI [11]: 3.76 µM | IC50 (MCF7 [12]): < 1 µM | GI50 [13]: 9.72 µM | LC50 [13]: 46.3 µM | TGI [13]: 21.4 µM | GI50 [14]: 2.94 µM | LC50 [14]: 67.2 µM | TGI [14]: 11 µM

CCCCCCCCCC(=O)Oc1ccc(/C(=C(/C)c2ccccc2)c2ccc(OCCN3CCCC3)cc2)cc1
GI50 [1]: 9.24 µM | TGI [1]: 18.7 µM | CC50 [1]: 37.8 µM | GI50 (MCF7 [2]): < 5 µM | TGI (MCF7 [2]): 10.3 µM | CC50 (MCF7 [2]): 28 µM | GI50 (SK-MEL-2): 9.49 µM | TGI (SK-MEL-2): 18.1 µM | CC50 (SK-MEL-2): 34.4 µM | GI50 (NCI-H23): 7.74 µM | TGI (NCI-H23): 16.1 µM | CC50 (NCI-H23): 33.4 µM | GI50 (NCI-H522): 9.36 µM | TGI (NCI-H522): 18.4 µM | CC50 (NCI-H522): 36.3 µM | GI50 [3]: 6.55 µM | LC50 [3]: 27.9 µM | TGI [3]: 13.5 µM | GI50 (NCI-H322M): 8.04 µM | TGI (NCI-H322M): 15.7 µM | CC50 (NCI-H322M): 30.7 µM | LC50 (T47D): 39.9 µM | TGI (T47D): 14.4 µM | GI50 (SR): 9.08 µM | TGI (SR): 19 µM | CC50 (SR): 39.7 µM | GI50 [4]: 9.18 µM | TGI [4]: 16.8 µM | CC50 [4]: 30.9 µM | TGI [5]: 14.7 µM | CC50 [5]: 29.1 µM | GI50 [6]: 6.77 µM | LC50 [6]: 28.7 µM | TGI [6]: 13.9 µM | LC50 (concentration killing 50% of starting cells) (SK-MEL-28): 28.6 µM | TGI (SK-MEL-28): 15.3 µM | LC50 (K562): 36.2 µM | TGI (K562): 16.2 µM | GI50 (786-0): 8.77 µM | TGI (786-0): 16.8 µM | CC50 (786-0): 32.2 µM | GI50 [7]: 7.01 µM | TGI [7]: 15.4 µM | CC50 [7]: 33.8 µM | IC50 (Estrogen receptor): 0.0484 µM | GI50 (ACHN): 8.16 µM | LC50 (concentration causing 50% net cell kill) (ACHN): 29.3 µM | TGI (ACHN): 15.5 µM | GI50 [8]: 8.87 µM | TGI [8]: 19.5 µM | CC50 [8]: 43.7 µM | GI50 (U-251): 8.01 µM | LC50 (50% lethal concentration) (U-251): 29.8 µM | TGI (U-251): 15.4 µM | GI50 (Malme-3M): 7.76 µM | TGI (Malme-3M): 15.7 µM | CC50 (Malme-3M): 31.9 µM | GI50 [9]: 7.39 µM | LC50 [9]: 29.9 µM | TGI [9]: 14.9 µM | GI50 (CCRF-CEM): 9.51 µM | TGI (CCRF-CEM): 22.3 µM | CC50 (CCRF-CEM): 50 µM | GI50 [10]: 6.69 µM | LC50 (concentration killing 50% of cells) [10]: 25.6 µM | TGI [10]: 13.1 µM | GI50 [11]: 8.7 µM | LC50 [11]: 32.9 µM | TGI [11]: 16.9 µM | IC50 (MCF7 [12]): < 1 µM | GI50 [13]: 8 µM | LC50 [13]: 27.5 µM | TGI [13]: 14.8 µM | GI50 [14]: 8.61 µM | LC50 [14]: 47.7 µM | TGI [14]: 20.3 µM
